# From patent US8557859B2, “Immunomodulatory compositions” (Summit (Wales) Limited, priority 2003, dated 2013)
# Legend:
# [1] = test system: α-D-glucosidase; assay: Glycosidase inhibition, α-D-glucosidase (Bacillus); type: biochemical, Bacillus stearothermophilus; settings: 1 mg/ml
# Experimental: (§1) All enzymes were purchased from Sigma, as were the appropriate p-nitrophenyl substrates. Assays were carried out in microtitre plates. Enzymes were assayed in 0.1 M citric acid/0.2M di-sodium hydrogen phosphate (McIlvaine) buffers at the optimum pH for the enzyme. All assays were carried out at 20° C. For screening assays the incubation assay consisted of 10 μl of enzyme solution, 10 μl of inhibitor solution (made up in water) and 50 μl of the appropriate 5 mM p-nitrophenyl substrate (3.57 mM final conc.) made up in McIlvaine buffer at the optimum pH for the enzyme.
# (§2) The reactions were stopped with 0.4M glycine (pH 10.4) during the exponential phase of the reaction, which was determined at the beginning of the assay using blanks with water, which were incubated for a range of time periods to measure the reaction rate using 5 mM substrate solution. Endpoint absorbances were read at 405 nm with a Biorad microtitre plate reader (Benchmark). Water was substituted for the inhibitors in the blanks.
# [2] = test system: β-D-glucosidase; assay: Glycosidase inhibition, β-D-glucosidase; type: biochemical, Almonds (Prunus sp.)
# Experimental: as §1, §2
# [3] = test system: β-D-galactosidase; assay: Glycosidase inhibition, β-D-galactosidase; type: biochemical, Bovine liver; settings: 1 mg/ml; second galactosidase line
# Experimental: as §1, §2
# [4] = test system: Naringinase; assay: Glycosidase inhibition, Naringinase; type: biochemical, Penecillium decumbens; settings: 1 mg/ml
# Experimental: as §1, §2
# [5] = test system: N-acetyl-β-D-glucosaminidase; assay: Glycosidase inhibition, N-acetyl-β-D-glucosaminidase; type: biochemical, Bovine kidney; settings: 1 mg/ml
# Experimental: as §1, §2
# [6] = target: rabbit gut mucosa α-D-glucosidase; assay: Inhibition of rabbit gut mucosa α-D-glucosidase; type: biochemical
# [7] = target: T1, rabbit small intestine sucrase (Oryctolagus cuniculus, UniProt P07768); assay: Inhibition of rabbit small intestine sucrase; type: biochemical; settings: at a concentration of 700 μM
# T1 construct: from tissue; host or cells: rabbit small intestine
# [8] = test system: HSV-1 (SC16); assay: Treatment of murine HSV-1 infection: ear pinna thickness; type: in vivo, BALB/c mice; settings: result in words; casuarine at both doses (15 and 150 mg/kg i.p.); famciclovir via drinking water 1 mg/ml
# [9] = Treatment of murine HSV-1 infection: body weight; type: in vivo, BALB/c mice
# [10] = test system: B16-F10 tumour cells; assay: Control of lung metastasis in mice; type: in vivo, Mice (C57/bl6); settings: 50 mg/kg s/c on days 2 and 4; lungs on day 14
# Experimental: Mice (C57/bl6 under i/p ketamine anaesthesia) were challenged i/v (tail vein) with 5×10^4 B16-F10 tumour cells in a final volume of 100 μl per mouse on day 0. Test compounds (50 mg/kg in 200 μl sterile non-pyrogenic saline) were administered s/c (right flank) on days 2 and 4. On day 14 the mice were sacrifices and the lungs dissected and stained in Indian ink solution (150 ml bidistilled water, 30 ml India Ink, 4 drops NH4OH) for 10 minutes then fixed for at least 24 hr in Fakete's solution (90 ml 37% formaldehyde, 900 ml 70% EtOH and 45 ml glacial acetic acid). The metastases in the stained and fixed lungs could then be visualized, counted and photographed.
# [11] = test system: Na^+-dependent D-glucose uptake into ovine intestinal brush border membrane vesicles; assay: Effect on glucose transport (competition assay with labelled D-glucose); type: biochemical
# [12] = Group 1: 15 mg/kg i.p. daily, day 0
# [13] = Group 1: 15 mg/kg i.p. daily, day 1
# [14] = Group 1: 15 mg/kg i.p. daily, day 2
# [15] = Group 1: 15 mg/kg i.p. daily, day 3
# [16] = Group 1: 15 mg/kg i.p. daily, day 4
# [17] = Group 1: 15 mg/kg i.p. daily, day 5
# [18] = Group 1: 15 mg/kg i.p. daily, day 6
# [19] = Group 1: 15 mg/kg i.p. daily, day 7
# [20] = Group 1: 15 mg/kg i.p. daily, day 8
# [21] = Group 1: 15 mg/kg i.p. daily, day −2
# [22] = Group 2: 150 mg/kg i.p. daily, day 0
# [23] = Group 2: 150 mg/kg i.p. daily, day 1
# [24] = Group 2: 150 mg/kg i.p. daily, day 2
# [25] = Group 2: 150 mg/kg i.p. daily, day 3
# [26] = Group 2: 150 mg/kg i.p. daily, day 4
# [27] = Group 2: 150 mg/kg i.p. daily, day 5
# [28] = Group 2: 150 mg/kg i.p. daily, day 6
# [29] = Group 2: 150 mg/kg i.p. daily, day 7
# [30] = Group 2: 150 mg/kg i.p. daily, day 8
# [31] = Group 2: 150 mg/kg i.p. daily, day −2
# T1 sequence (P07768 whole entry): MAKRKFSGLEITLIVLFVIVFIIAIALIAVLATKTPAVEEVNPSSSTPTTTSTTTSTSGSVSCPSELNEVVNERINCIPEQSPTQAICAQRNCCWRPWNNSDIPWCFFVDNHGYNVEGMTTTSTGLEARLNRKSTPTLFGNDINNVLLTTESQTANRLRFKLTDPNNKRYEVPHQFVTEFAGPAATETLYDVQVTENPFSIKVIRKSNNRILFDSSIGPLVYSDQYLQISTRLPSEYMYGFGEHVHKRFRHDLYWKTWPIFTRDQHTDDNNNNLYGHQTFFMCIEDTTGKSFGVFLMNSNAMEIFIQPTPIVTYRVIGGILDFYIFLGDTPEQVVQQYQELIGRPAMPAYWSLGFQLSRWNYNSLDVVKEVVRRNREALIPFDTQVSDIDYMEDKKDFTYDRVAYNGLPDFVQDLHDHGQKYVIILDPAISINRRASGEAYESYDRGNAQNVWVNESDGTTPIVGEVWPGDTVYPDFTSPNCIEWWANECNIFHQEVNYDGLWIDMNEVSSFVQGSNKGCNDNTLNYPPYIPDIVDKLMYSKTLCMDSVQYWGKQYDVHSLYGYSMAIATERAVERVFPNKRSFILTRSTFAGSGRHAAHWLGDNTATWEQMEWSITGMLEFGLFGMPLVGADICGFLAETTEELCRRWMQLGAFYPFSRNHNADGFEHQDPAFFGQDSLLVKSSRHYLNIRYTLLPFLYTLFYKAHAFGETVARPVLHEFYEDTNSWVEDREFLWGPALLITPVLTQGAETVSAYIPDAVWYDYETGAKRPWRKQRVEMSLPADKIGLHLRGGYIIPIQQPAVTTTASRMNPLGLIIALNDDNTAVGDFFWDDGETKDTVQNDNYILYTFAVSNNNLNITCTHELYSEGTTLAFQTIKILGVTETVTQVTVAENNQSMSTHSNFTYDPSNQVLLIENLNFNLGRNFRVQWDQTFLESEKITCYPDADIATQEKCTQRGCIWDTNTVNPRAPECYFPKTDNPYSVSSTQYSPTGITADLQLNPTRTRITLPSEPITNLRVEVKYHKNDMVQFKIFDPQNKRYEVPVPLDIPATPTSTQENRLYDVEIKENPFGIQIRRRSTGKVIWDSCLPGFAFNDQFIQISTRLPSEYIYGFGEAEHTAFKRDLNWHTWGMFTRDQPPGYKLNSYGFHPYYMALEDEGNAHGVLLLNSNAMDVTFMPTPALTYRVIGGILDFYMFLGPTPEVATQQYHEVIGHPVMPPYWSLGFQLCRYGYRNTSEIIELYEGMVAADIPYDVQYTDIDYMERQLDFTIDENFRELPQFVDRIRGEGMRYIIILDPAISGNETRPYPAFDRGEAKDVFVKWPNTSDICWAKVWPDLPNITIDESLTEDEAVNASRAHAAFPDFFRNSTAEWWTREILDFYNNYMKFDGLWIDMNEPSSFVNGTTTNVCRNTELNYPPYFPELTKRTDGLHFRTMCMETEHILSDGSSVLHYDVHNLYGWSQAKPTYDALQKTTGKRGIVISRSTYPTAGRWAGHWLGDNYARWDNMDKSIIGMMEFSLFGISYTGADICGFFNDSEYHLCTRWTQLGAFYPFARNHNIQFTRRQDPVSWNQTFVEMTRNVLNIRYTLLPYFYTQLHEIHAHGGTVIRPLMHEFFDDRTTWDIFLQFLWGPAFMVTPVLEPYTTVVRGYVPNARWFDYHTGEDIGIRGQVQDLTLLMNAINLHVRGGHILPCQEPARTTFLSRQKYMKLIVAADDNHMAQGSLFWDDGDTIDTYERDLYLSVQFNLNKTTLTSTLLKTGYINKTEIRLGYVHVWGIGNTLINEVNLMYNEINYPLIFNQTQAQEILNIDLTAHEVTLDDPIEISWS
smiles,measurement,setting,value
"OC[C@@H]1[C@@H](O)[C@H](O)[C@H]2[C@H](O)[C@@H](O)CN21 [casuarine (8), (1R,2R,3R,6S,7S,7aR)-3-(hydroxymethyl)-1,2,6,7-tetrahydroxypyrrolizidine]",% inhibition gluc (Bacillus),[1],86%
same,% inhibition glucosidase,[2]; 1 mg/ml,0%
same,inhibition of almond 6-D-glucosidase,[2]; at 800 μM,not being inhibitory
same,% inhibition galactosidase,[3],0%
same,% inhibition Naringinase,[4],−2%
same,% inhibition N-acetyl-β-gluc,[5],14%
same,IC50,[6],210 µM
same,inhibition of rabbit small intestine sucrase,[7],inhibited
same,ear thickness response,[8],produced a reduction in ear thickness
same,Group mean weight,[9]; [12],16.7 g
same,Weight (% change),[9]; [12],3.1%
same,Group mean weight,[9]; [13],17.1 g
same,Weight (% change),[9]; [13],5.6%
same,Group mean weight,[9]; [14],17.1 g
same,Weight (% change),[9]; [14],5.6%
same,Group mean weight,[9]; [15],17.6 g
same,Weight (% change),[9]; [15],8.6%
same,Group mean weight,[9]; [16],17.4 g
same,Weight (% change),[9]; [16],7.4%
same,Group mean weight,[9]; [17],17.6 g
same,Weight (% change),[9]; [17],8.6%
same,Group mean weight,[9]; [18],17.7 g
same,Weight (% change),[9]; [18],9.2%
same,Group mean weight,[9]; [19],17.4 g
same,Weight (% change),[9]; [19],7.4%
same,Group mean weight,[9]; [20],17.7 g
same,Weight (% change),[9]; [20],9.3%
same,Group mean weight,[9]; [21],16.2 g
same,Weight (% change),[9]; [21],0%
same,Group mean weight,[9]; [22],16 g
same,Weight (% change),[9]; [22],3.2%
same,Group mean weight,[9]; [23],16.4 g
same,Weight (% change),[9]; [23],5.8%
same,Group mean weight,[9]; [24],16.3 g
same,Weight (% change),[9]; [24],5.2%
same,Group mean weight,[9]; [25],16.6 g
same,Weight (% change),[9]; [25],7.1%
same,Group mean weight,[9]; [26],16.4 g
same,Weight (% change),[9]; [26],5.8%
same,Group mean weight,[9]; [27],16.8 g
same,Weight (% change),[9]; [27],8.4%
same,Group mean weight,[9]; [28],17 g
same,Weight (% change),[9]; [28],9.7%
same,Group mean weight,[9]; [29],16.7 g
same,Weight (% change),[9]; [29],7.7%
same,Group mean weight,[9]; [30],16.8 g
same,Weight (% change),[9]; [30],8.4%
same,Group mean weight,[9]; [31],15.5 g
same,Weight (% change),[9]; [31],0%
same,Metastatic morphology,[10],Metastasis restricted to apical tip of lung
same,Glucose uptake,"[11]; initial rate, control 240",265 pmol/s/mg
same,glucose transport,[11]; result in words,slightly stimulated
